Measured values reported in ChEMBL document CHEMBL5523738, “Lipid Trolling to Optimize A3 Adenosine Receptor-Positive Allosteric Modulators (PAMs)” (J Med Chem, 2024).
Blank lines part the entries; values can stand above or below the compound they belong to. Activity calls are given as the source filed them. The rule behind the calls is not given here.

What was measured:
[1] = target: T1, Adenosine receptor A3 (Homo sapiens) (UniProt P0DMS8); test: Positive allosteric modulation of human A3 adenosine receptor transfected in HEK293 cell membranes assessed as potentiation of 5-(2-chloro-6-((3-iodobenzyl)amino)-9H-purin-9-yl)-3,4-dihydroxy-N-methyltetrahydrofuran-2-carboxamide induced [35S]GTP-gammaS binding by measuring fold increase in agonist …; settings: Membrane, filed as positive allosteric modulator, dose 1.0 µM, time 3.0 hrs
T1 sequence (whole entry): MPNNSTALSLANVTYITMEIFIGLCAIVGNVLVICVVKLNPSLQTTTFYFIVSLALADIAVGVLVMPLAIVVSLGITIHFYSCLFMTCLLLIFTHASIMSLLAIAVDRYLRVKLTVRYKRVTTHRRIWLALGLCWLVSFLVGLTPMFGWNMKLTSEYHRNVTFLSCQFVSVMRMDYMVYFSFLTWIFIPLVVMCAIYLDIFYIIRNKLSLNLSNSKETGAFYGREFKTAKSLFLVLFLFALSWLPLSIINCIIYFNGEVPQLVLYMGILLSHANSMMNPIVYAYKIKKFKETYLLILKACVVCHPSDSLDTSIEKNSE

[2] = target: T1, Adenosine receptor A3 (Homo sapiens); test: (§1) Positive allosteric modulation of human A3 adenosine receptor transfected in HEK293 cell membranes assessed as slow down of [125I]I-AB-MECA dissociation rate at 10 uM preincubated with radioligand for 3 hrs followed by NECA and compound addition and measured after 60 mins by gamma counter method; settings: Membrane, filed as positive allosteric modulator
[3] = target: T2, Adenosine receptor A3 (Mus musculus) (UniProt Q61618); test: Orthosteric antagonist activity at full length mouse A3 adenosine receptor transfected in HEK293 cell membranes assessed as inhibition of [125I]I-AB-MECA binding at equilibrium at 10 uM by gamma counter method; settings: Membrane, filed as antagonist
T2 sequence (whole entry): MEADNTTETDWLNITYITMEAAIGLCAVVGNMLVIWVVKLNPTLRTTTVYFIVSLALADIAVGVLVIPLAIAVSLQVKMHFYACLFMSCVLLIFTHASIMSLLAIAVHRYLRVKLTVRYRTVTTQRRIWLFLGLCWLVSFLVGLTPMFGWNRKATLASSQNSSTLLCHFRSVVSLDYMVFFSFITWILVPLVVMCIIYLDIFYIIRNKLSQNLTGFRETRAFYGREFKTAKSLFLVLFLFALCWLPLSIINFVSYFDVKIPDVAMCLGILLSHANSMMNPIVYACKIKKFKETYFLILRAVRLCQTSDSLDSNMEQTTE

[4] = target: T2, Adenosine receptor A3 (Mus musculus); test: as §1, with “full length mouse” for “human”, “upto 180” for “after 60”; settings: Membrane, filed as positive allosteric modulator
[5] = target: T1, Adenosine receptor A3 (Homo sapiens); test: (§2) Antagonist activity at human A3 adenosine receptor transfected in HEK293 cell membranes assessed as rightward shift in 5-(2-chloro-6-((3-iodobenzyl)amino)-9H-purin-9-yl)-3,4-dihydroxy-N-methyltetrahydrofuran-2-carboxamide activation curve pretreated for 1 hr followed by agonist addition and measured after 2 hrs by liquid scintillation counting method; assay type: functional; settings: Membrane, filed as antagonist, time 3.0 hrs
[6] = target: T1, Adenosine receptor A3 (Homo sapiens); test: Orthosteric antagonist activity at human A3 adenosine receptor transfected in HEK293 cell membranes assessed as inhibition of [125I]I-AB-MECA binding at equilibrium at 10 uM measured for 18 hrs by gamma counter method; settings: Membrane, filed as antagonist
[7] = target: Kappa-type opioid receptor (Homo sapiens) (UniProt P41145); test: Binding affinity to KOR (unknown origin)
Kappa-type opioid receptor (Homo sapiens), sequence (P41145 whole entry): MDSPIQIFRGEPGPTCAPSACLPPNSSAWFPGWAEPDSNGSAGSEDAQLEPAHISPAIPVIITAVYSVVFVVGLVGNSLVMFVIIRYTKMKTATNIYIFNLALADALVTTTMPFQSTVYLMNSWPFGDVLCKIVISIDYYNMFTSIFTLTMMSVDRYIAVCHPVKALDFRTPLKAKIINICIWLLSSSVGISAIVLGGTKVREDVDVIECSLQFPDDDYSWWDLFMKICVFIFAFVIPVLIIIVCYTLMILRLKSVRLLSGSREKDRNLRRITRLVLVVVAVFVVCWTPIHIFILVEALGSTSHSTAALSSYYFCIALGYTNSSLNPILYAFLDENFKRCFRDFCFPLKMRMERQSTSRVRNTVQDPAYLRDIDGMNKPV

[8] = target: Alpha-1A adrenergic receptor (Homo sapiens) (UniProt P35348); test: Binding affinity to alpha1A adrenergic receptor (unknown origin)
[9] = target: Beta-3 adrenergic receptor (Homo sapiens) (UniProt P13945); test: Binding affinity to beta3 adrenergic receptor (unknown origin)
[10] = target: Alpha-1D adrenergic receptor (Homo sapiens) (UniProt P25100); test: Binding affinity to alpha1D adrenergic receptor (unknown origin)
Alpha-1D adrenergic receptor (Homo sapiens), sequence (P25100 whole entry): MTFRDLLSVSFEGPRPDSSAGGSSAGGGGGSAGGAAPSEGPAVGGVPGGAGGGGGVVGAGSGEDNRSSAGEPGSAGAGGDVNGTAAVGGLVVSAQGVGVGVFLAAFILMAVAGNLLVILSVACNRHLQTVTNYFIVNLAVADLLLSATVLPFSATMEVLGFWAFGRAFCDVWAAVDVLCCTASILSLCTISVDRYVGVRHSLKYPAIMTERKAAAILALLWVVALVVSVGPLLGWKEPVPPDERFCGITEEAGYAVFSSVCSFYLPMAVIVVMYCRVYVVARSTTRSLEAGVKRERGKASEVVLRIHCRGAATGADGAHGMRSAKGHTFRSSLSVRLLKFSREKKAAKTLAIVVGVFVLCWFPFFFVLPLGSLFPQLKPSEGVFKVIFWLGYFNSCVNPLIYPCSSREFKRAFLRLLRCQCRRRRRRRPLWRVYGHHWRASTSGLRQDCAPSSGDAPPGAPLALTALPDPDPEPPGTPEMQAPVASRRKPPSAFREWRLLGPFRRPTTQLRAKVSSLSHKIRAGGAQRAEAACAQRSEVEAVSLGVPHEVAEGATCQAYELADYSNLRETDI

[11] = target: Muscarinic acetylcholine receptor M4 (Homo sapiens) (UniProt P08173); test: Binding affinity to M4 receptor (unknown origin)
Muscarinic acetylcholine receptor M4 (Homo sapiens), sequence (P08173 whole entry): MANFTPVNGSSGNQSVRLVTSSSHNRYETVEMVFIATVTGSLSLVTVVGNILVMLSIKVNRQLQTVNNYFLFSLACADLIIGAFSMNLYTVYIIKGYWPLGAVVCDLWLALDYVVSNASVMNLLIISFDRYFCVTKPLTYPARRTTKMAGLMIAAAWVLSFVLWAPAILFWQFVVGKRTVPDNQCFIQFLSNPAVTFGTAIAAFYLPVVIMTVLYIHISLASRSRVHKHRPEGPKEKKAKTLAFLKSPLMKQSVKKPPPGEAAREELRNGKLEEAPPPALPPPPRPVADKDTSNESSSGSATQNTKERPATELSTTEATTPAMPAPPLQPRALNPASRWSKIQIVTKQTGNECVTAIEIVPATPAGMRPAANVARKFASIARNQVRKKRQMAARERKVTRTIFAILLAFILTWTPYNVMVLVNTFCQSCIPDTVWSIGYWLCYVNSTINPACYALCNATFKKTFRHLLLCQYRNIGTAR

[12] = target: Delta-type opioid receptor (Homo sapiens) (UniProt P41143); test: Binding affinity to DOR (unknown origin)
Delta-type opioid receptor (Homo sapiens), sequence (P41143 whole entry): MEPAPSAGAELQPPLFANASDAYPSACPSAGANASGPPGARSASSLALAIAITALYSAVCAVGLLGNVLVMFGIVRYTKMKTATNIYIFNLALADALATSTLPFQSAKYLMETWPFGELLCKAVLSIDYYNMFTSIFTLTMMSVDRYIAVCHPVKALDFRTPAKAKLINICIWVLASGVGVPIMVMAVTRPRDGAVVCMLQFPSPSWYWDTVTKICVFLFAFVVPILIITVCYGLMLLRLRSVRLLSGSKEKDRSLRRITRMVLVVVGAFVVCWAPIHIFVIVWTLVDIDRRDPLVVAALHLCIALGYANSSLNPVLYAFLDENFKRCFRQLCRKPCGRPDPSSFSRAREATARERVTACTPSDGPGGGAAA

[13] = target: Histamine H2 receptor (Homo sapiens) (UniProt P25021); test: Binding affinity to histamine H2 receptor (unknown origin)
Histamine H2 receptor (Homo sapiens), sequence (P25021 whole entry): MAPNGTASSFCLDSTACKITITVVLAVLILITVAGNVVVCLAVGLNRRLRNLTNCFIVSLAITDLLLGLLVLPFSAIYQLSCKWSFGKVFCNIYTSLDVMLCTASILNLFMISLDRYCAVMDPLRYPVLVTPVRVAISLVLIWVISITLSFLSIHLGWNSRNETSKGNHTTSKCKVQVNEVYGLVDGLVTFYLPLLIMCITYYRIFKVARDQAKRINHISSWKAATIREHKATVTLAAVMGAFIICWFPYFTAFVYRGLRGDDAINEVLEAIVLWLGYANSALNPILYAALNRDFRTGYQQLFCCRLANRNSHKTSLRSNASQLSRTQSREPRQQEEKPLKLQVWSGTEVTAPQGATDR

[14] = target: Beta-2 adrenergic receptor (Homo sapiens) (UniProt P07550); test: Binding affinity to beta2 adrenergic receptor (unknown origin)
Beta-2 adrenergic receptor (Homo sapiens), sequence (P07550 whole entry, looked up): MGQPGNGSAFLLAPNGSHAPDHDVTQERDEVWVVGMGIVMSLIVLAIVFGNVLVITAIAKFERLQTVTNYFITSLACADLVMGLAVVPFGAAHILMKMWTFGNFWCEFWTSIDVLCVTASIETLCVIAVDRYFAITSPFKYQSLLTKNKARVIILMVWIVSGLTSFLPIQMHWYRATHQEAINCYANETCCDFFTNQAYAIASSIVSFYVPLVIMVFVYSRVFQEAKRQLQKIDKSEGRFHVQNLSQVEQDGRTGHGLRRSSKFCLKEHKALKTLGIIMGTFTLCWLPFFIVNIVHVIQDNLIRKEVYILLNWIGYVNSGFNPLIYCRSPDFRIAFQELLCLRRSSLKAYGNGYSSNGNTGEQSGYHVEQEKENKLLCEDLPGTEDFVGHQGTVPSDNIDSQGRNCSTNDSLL

[15] = target: GABA-A receptor; anion channel (Homo sapiens) (UniProt P14867+P47870+P18507+P28472+P48169+Q99928+Q9UN88+P34903+O00591+O14764+Q8N1C3+P18505+P78334+P47869+P31644+Q16445); test: Binding affinity to GABA-A receptor (unknown origin); assay type: protein-complex assay
[16] = target: Muscarinic acetylcholine receptor M2 (Homo sapiens) (UniProt P08172); test: Binding affinity to M2 receptor (unknown origin)
[17] = target: Mu-type opioid receptor (Homo sapiens) (UniProt P35372); test: Binding affinity to MOR (unknown origin)
[18] = target: 5-hydroxytryptamine receptor 1E (Homo sapiens) (UniProt P28566); test: Binding affinity to 5-HT1E (unknown origin)
5-hydroxytryptamine receptor 1E (Homo sapiens), sequence (P28566 whole entry): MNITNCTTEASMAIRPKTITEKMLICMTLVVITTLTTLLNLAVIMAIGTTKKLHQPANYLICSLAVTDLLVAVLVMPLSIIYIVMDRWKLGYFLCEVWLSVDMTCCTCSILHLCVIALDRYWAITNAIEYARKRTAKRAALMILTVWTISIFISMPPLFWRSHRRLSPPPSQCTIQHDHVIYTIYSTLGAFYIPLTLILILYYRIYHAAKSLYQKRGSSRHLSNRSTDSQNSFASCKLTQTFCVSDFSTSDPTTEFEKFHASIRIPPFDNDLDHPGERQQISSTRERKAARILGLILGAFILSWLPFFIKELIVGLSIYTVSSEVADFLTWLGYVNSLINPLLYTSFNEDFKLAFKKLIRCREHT

[19] = target: D(2) dopamine receptor (Homo sapiens) (UniProt P14416); test: Binding affinity to D2 receptor (unknown origin)
D(2) dopamine receptor (Homo sapiens), sequence (P14416 whole entry): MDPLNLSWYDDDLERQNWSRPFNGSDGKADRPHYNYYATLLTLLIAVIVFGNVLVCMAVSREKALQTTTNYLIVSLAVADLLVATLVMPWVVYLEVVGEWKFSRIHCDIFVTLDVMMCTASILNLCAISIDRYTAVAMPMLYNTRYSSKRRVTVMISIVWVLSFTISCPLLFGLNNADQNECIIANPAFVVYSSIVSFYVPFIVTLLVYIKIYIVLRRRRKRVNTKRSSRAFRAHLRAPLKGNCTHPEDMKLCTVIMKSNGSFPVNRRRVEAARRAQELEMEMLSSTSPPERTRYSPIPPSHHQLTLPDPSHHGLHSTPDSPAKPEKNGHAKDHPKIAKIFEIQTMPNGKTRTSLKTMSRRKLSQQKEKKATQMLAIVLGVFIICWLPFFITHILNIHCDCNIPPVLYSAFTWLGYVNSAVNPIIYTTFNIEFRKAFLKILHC

[20] = target: 5-hydroxytryptamine receptor 5A (Homo sapiens) (UniProt P47898); test: Binding affinity to 5-HT5A (unknown origin)
5-hydroxytryptamine receptor 5A (Homo sapiens), sequence (P47898 whole entry): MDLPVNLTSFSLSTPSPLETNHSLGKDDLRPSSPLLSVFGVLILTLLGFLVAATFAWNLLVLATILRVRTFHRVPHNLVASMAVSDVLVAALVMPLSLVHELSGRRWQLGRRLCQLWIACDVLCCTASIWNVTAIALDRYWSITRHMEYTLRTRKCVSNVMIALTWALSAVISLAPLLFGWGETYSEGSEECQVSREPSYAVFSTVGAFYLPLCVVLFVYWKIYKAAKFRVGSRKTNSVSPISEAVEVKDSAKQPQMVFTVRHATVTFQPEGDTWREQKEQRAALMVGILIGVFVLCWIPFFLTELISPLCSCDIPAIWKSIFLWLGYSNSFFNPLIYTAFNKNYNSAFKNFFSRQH

Homo sapiens = species on record: Homo sapiens; test: Binding affinity to BZP receptor (unknown origin)
[21] = target: Muscarinic acetylcholine receptor M1 (Homo sapiens) (UniProt P11229); test: Binding affinity to M1 receptor (unknown origin)
[22] = target: D(1A) dopamine receptor (Homo sapiens) (UniProt P21728); test: Binding affinity to D1 receptor (unknown origin)
D(1A) dopamine receptor (Homo sapiens), sequence (P21728 whole entry): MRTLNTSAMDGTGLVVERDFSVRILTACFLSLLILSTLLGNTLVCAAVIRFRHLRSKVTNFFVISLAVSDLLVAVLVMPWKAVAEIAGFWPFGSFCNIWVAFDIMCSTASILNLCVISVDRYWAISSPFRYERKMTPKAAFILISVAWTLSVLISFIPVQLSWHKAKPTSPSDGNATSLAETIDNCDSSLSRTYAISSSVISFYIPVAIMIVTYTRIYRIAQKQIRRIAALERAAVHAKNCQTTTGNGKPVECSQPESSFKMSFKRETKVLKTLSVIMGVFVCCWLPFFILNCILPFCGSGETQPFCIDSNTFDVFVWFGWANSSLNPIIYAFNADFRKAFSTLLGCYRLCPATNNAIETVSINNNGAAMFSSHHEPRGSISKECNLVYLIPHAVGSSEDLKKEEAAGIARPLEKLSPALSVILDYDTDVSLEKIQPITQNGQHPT

[23] = target: 5-hydroxytryptamine receptor 3A (Homo sapiens) (UniProt P46098); test: Binding affinity to 5-HT3 (unknown origin)
5-hydroxytryptamine receptor 3A (Homo sapiens), sequence (P46098 whole entry): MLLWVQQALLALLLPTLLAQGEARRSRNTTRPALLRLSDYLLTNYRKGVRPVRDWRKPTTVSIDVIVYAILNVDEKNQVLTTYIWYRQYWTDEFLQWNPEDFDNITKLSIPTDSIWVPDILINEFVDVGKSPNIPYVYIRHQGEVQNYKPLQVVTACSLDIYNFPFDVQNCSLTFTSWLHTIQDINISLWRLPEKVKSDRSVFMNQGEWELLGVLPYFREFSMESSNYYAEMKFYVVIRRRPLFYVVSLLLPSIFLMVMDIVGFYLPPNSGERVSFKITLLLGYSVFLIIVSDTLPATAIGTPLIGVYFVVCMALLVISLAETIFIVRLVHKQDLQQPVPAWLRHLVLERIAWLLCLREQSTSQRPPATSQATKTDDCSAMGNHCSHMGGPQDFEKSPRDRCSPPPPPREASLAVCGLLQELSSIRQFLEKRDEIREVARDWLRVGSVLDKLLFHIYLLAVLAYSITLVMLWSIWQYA

[24] = target: T1, Adenosine receptor A3 (Homo sapiens); test: as §2, with “curve at 10 uM” for “curve”; assay type: functional; settings: Membrane, time 3.0 hrs
[25] = target: T2, Adenosine receptor A3 (Mus musculus); test: (§3) Positive allosteric modulation of full length mouse A3 adenosine receptor transfected in HEK293 cell membranes assessed as reduction in [125I]I-AB-MECA dissociation rate at 1 to 10 uM preincubated with radioligand for 3 hrs followed by NECA and compound addition and measured upto 180 mins by gamma counter method; settings: Membrane, filed as positive allosteric modulator, dose 1-10 µM
[26] = target: T2, Adenosine receptor A3 (Mus musculus); test: as §3, with “0.1” for “1 to 10”; settings: Membrane
[27] = target: T1, Adenosine receptor A3 (Homo sapiens); test: Positive allosteric modulation of human A3 adenosine receptor transfected in HEK293 cell membranes assessed as potentiation of MRS5698 induced inhibition of cAMP formation by measuring fold increase in agonist potency at 3 uM relative to control; assay type: functional; settings: Membrane, filed as positive allosteric modulator
[28] = target: T1, Adenosine receptor A3 (Homo sapiens); test: Positive allosteric modulation of human A3 adenosine receptor transfected in HEK293 cell membranes assessed as potentiation of NECA induced ERK activation at 3 uM; settings: Membrane
[29] = target: T1, Adenosine receptor A3 (Homo sapiens); test: (§4) Positive allosteric modulation of human A3 adenosine receptor transfected in HEK293 cell membranes assessed as potentiation of 5-(2-chloro-6-((3-iodobenzyl)amino)-9H-purin-9-yl)-3,4-dihydroxy-N-methyltetrahydrofuran-2-carboxamide induced [35S]GTP-gammaS binding by measuring maximal efficacy of agonist at 0.001 uM pretreated for 1 hr followed by agonist addition and measured after 2 hrs by liquid scintillation counting method (reference value: 100 +/- 3%); settings: Membrane, filed as positive allosteric modulator, time 3.0 hrs
[30] = target: T1, Adenosine receptor A3 (Homo sapiens); test: Positive allosteric modulation of human A3 adenosine receptor transfected in HEK293 cell membranes assessed as potentiation of MRS5698 induced ERK activation at 3 uM; settings: Membrane
[31] = target: T1, Adenosine receptor A3 (Homo sapiens); test: Positive allosteric modulation of human A3 adenosine receptor transfected in HEK293 cell membranes assessed as potentiation of MRS5698 induced inhibition of cAMP formation by measuring maximal efficacy of agonist at 3 uM (reference value: 100%); assay type: functional; settings: Membrane, filed as positive allosteric modulator
[32] = target: T1, Adenosine receptor A3 (Homo sapiens); test: as §4, with “0.01” for “0.001”; settings: Membrane, filed as positive allosteric modulator, time 3.0 hrs
[33] = target: Adenosine receptor A1 (Homo sapiens) (UniProt P30542); test: Positive allosteric modulation of human A1 adenosine receptor transfected in HEK293 cells assessed as potentiation of […] induced inhibition of cAMP formation at 3 uM; assay type: functional, cell-based

SMILES: CCCC(CCC)c1nc2c(Nc3ccc(C#CCCCCCCCCCN4CCCC4)cc3)nc3ccccc3c2[nH]1
fold change (FC) [1]: 4

SMILES: CN(c1ccc(Cl)c(Cl)c1)c1nc2ccccc2c2[nH]c(C3CCCCC3)nc12
Activity [2]: Active

SMILES: Clc1ccc(Nc2nc3ccccc3c3nc(C4CCCCC4)sc23)cc1Cl
Activity [5]: Active
Activity [2]: Active

SMILES: OCCn1c(C2CCCCC2)nc2c(Nc3ccc(Cl)c(Cl)c3)nc3ccccc3c21
Activity [6]: Active

SMILES: CCCC(CCC)c1nc2c(Oc3ccc(Cl)c(Cl)c3)nc3ccccc3c2[nH]1
Activity [2]: Active
Activity [6]: Active

SMILES: CCCC(CCC)c1nc2c(Oc3ccccc3)nc3ccccc3c2[nH]1
Activity [2]: Active
Activity [6]: Active

SMILES: CCCC(CCC)c1nc2c(Sc3ccc(Cl)c(Cl)c3)nc3ccccc3c2[nH]1
Activity [2]: Active
Activity [6]: Active

SMILES: CCCC(CCC)c1nc2c(Nc3ccc(C#CCCCN)cc3)nc3ccccc3c2[nH]1
Activity [4]: Active

SMILES: CCCC(CCC)c1nc2c(Nc3ccc(C#CCCCCCCCCN=C(N)N)cc3)nc3ccccc3c2[nH]1
fold change (FC) [1]: 9.5

SMILES: CCCC(CCC)c1nc2c(Nc3ccc(I)cc3)nc3ccccc3c2[nH]1
Activity [4]: Active

SMILES: Clc1ccc(Oc2nc3ccccc3c3[nH]c(C4CCCCC4)nc23)cc1Cl
Activity [2]: Active
Activity [6]: Active

SMILES: Clc1ccc(Nc2nc3ccccc3c3nc(C4CCCCC4)oc23)cc1Cl
Activity [5]: Active
Activity [6]: Active

SMILES: CCCC(CCC)c1nc2c(Nc3ccc(I)cc3)nc3ccccc3c2n1Cc1ccccc1
Activity [6]: Active
fold change (FC) [1]: 2.5

SMILES: CCCC(CCC)c1nc2c(Nc3ccc(C#CCN)cc3)nc3ccccc3c2[nH]1
Activity [4]: Active

SMILES: CCCC(CCC)c1nc2c(Nc3ccc(C#CCCCCCCCCCN4CCCCC4)cc3)nc3ccccc3c2[nH]1
fold change (FC) [1]: 4

SMILES: CCCC(CCC)c1nc2c(Nc3ccc(C#CCCN)cc3)nc3ccccc3c2[nH]1
Activity [4]: Active

SMILES: Clc1ccc(Nc2nc3ccccc3c3sc(C4CCCCC4)nc23)cc1Cl
Activity [24]: inactive

SMILES: Clc1ccc(Sc2nc3ccccc3c3[nH]c(C4CCCCC4)nc23)cc1Cl
Activity [2]: Active
Activity [6]: Active

SMILES: CCCC(CCC)c1nc2c(Nc3ccc(/C=C/C(=O)NCCCCCCCCN)cc3)nc3ccccc3c2[nH]1
Activity [2]: Active
Activity [6]: Active

SMILES: CCCC(CCC)c1nc2c(Nc3ccc(/C=C/CCCCCCCCN)cc3)nc3ccccc3c2[nH]1
fold change (FC) [1]: 2.5

More lines, now with the values ahead:

Activity [3]: Active
Activity [4]: Active
SMILES: CCCC(CCC)c1nc2c(Nc3ccc(C#CCCCCCCN)cc3)nc3ccccc3c2[nH]1

fold change (FC) [1]: 12
SMILES: CCCC(CCC)c1nc2c(Nc3ccc(C#CCCCCCCCCNCCCCN)cc3)nc3ccccc3c2[nH]1

Activity [3]: Active
Activity [4]: Active
fold change (FC) [1]: 7.4
SMILES: CCCC(CCC)c1nc2c(Nc3ccc(C#CCCCCCCCN)cc3)nc3ccccc3c2[nH]1

Activity [3]: Active
Activity [4]: Active
SMILES: CCCC(CCC)c1nc2c(Nc3ccc(C#CCCCCN)cc3)nc3ccccc3c2[nH]1

Activity [3]: Active
Activity [4]: Active
fold change (FC) [1]: 2.5
SMILES: CCCC(CCC)c1nc2c([nH]1)c(Nc1ccc(C#CCCCCCCCCCCN)cc1)nc1ccccc12

Activity [7]: inactive
Activity [3]: Active
Activity [8]: inactive
Activity [9]: inactive
Activity [10]: inactive
Activity [11]: inactive
Activity [12]: inactive
Activity [13]: inactive
Activity [14]: inactive
Activity [4]: Active
Activity [15]: inactive
Activity [16]: inactive
Activity [17]: inactive
fold change (FC) [1]: 4
Activity [18]: inactive
Activity [19]: inactive
Activity [20]: inactive
Activity (Homo sapiens): inactive
Activity [21]: inactive
Activity [22]: inactive
Activity [23]: inactive
SMILES: CCCC(CCC)c1nc2c(Nc3ccc(C#CCCCCCCCCCN)cc3)nc3ccccc3c2[nH]1

fold change (FC) [1]: 4
SMILES: CCCC(CCC)c1nc2c(Nc3ccc(C#CCCCCCCCCN(C)C)cc3)nc3ccccc3c2[nH]1

Activity [4]: Active
SMILES: CCCC(CCC)c1nc2c(Nc3cccc(C#CCCCCCCCCN)c3)nc3ccccc3c2[nH]1

Activity [3]: Active
Activity [4]: Active
SMILES: CCCC(CCC)c1nc2c(Nc3ccc(C#CCCCCCN)cc3)nc3ccccc3c2[nH]1

Activity [25]: Active
Activity [26]: inactive
Activity [7]: inactive
fold change (FC) [27]: 9
Activity [3]: Active
Activity [2]: Active
Activity [28]: inactive
Activity [8]: inactive
Activity [9]: inactive
Activity [10]: inactive
Activity [11]: inactive
Activity [12]: inactive
Activity [13]: inactive
Activity [14]: inactive
Activity [15]: inactive
Activity [16]: inactive
Activity [17]: inactive
fold change (FC) [1]: 4
Activity [18]: inactive
Activity [19]: inactive
Activity [20]: inactive
Emax [29]: 112%
Activity [30]: inactive
Emax [31]: 117%
Activity (Homo sapiens): inactive
Activity [21]: inactive
Activity [22]: inactive
Activity [23]: inactive
Emax [32]: 157%
Activity [33]: inactive
SMILES: CCCC(CCC)c1nc2c(Nc3ccc(C#CCCCCCCCCN)cc3)nc3ccccc3c2[nH]1
